Experiments:
β-catenin/E-cadherin = target: T1, β-catenin/E-cadherin (Homo sapiens, UniProt P35222); assay: AlphaScreen selectivity assay, β-catenin/E-cadherin PPI; format: binding; conditions: Table 2, read-out: Ki ± SD β-catenin/E-cadherin
T1 construct: Full-length β-catenin and (residues 1-781) were cloned into a pET-28b vector carrying a C-terminal 6× histidine; made in house; host or cells: E. coli BL21 DE3
T1 sequence (P35222 1-781): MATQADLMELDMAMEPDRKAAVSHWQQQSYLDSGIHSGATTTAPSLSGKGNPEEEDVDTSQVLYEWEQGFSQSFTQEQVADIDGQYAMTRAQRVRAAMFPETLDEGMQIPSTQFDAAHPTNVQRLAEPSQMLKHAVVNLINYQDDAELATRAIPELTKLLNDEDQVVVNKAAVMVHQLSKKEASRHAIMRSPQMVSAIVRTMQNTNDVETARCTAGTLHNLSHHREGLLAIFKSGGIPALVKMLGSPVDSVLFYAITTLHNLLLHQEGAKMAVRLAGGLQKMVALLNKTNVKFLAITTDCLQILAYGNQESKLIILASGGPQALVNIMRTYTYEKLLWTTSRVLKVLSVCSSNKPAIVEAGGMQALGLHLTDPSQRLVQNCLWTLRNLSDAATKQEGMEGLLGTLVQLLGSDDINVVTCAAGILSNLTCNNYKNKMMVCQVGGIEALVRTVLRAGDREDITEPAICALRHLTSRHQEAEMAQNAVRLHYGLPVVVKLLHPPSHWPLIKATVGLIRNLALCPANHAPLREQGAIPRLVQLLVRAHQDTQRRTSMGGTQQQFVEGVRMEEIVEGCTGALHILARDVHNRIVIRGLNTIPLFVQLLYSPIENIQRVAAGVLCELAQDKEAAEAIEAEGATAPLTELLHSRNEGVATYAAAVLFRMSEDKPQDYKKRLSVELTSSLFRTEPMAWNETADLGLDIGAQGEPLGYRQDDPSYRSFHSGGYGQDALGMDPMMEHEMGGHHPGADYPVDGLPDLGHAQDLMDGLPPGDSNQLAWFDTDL
Source text: Compounds 4 and 5 were further evaluated with their selectivities for the disruption of β-catenin/BCL9 over β-catenin/E-cadherin interactions using the AlphaScreen selectivity assay (Zhang, M.; Wisniewski, J. A.; Ji, H AlphaScreen selectivity assay for, β-catenin/B-cell lymphoma 9 inhibitors. Anal. Biochen. 2015, 469, 43-53.).
BCL9 peptide synthesis and purification. Human BCL9 (residues 350-375), N-terminally biotinylated human BCL9 (residues 350-375), human E-cadherin (residues 824-877), and N-terminally biotinylated human E-cadherin (residues 824-877) were synthesized by InnoPep Inc. (San Diego, Calif., www.innopep.com). All synthesized peptides were purified by HPLC with purity >95%. […]
For the β-catenin/BCL9 assay, 5 nM of biotinylated BCL9 and 40 nM of His6-tagged β-catenin were incubated in assay buffer at 4° C. for 30 min. […] The IC50 value was determined by nonlinear least-square analysis of GraphPad Prism 5.0. The inhibition constant (Ki) values were derived from the IC50 values using a method reported by Nikolovska-Coleska et al (Nikolovska-Coleska, Z.; Wang, R.; Fang, X.; Pan, H.; Tomita, Y.; Li, P.; Roller, P. P.; Krajewski, K.; Saito, N. G.; Stuckey, J. A.; Wang, S. Development and optimization of a binding assay for the XIAP BIR3 domain using fluorescence polarization, Anal. Biochem. 2004, 332, 261-273.). […] The results were expressed as mean±standard deviation. […]

MDA-MB-231 = assay: MTs growth inhibition assay, MDA-MB-231; format: cell-based; conditions: Homo sapiens, Wnt/β-catenin-hyperactive, 72 h, read-out: MTs IC50 ± SD MDA-MB-231
Method: (§1) MTs cancer cell growth inhibition assays were conducted for 4 and 5. Three cancer cell lines with hyperactive Wnt/β-catenin signaling, SW480, HCT116, and MDA-MB-231. MTs cell viability assay. Colorectal cancer cell lines, SW480 and HCT116, and triple-negative breast cancer cell line MDA-MB-231 were seeded in 96-well plates at 4×10^3 cells/well, maintained overnight at 37° C., and incubated in the presence of 4 and 5 at various concentrations. Cell viability was monitored after 72 h using a freshly prepared mixture of 1 part phenazine methosulfate (PMS, Sigma) solution (0.92 mg/mL) and 19 parts 3-(4,5-dimethylthiazol-2-yl)-5-(3-carboxymethoxyphenyl)-2-(4-sulfophenyl)-2H-tetrazolium (MTs, Promega) solution (2 mg/mL). Cells were incubated in 10 μL of this solution at 37° C. for 3 h, and A490 was measured. The effect of each compound is expressed as the concentration required to reduce A490 by 50% (IC50) relative to vehicle-treated cells. Experiments were performed in triplicate.

SW480 = assay: MTs growth inhibition assay, SW480; format: cell-based; conditions: Homo sapiens, Wnt/β-catenin-hyperactive, 72 h, read-out: MTs IC50 ± SD SW480
Method: as §1

A549 = assay: MTs growth inhibition assay, A549 (Wnt-latent); format: cell-based; conditions: Homo sapiens, read-out: MTs IC50 ± SD A549
HCT116 = assay: MTs growth inhibition assay, HCT116; format: cell-based; conditions: Homo sapiens, HCT-116; Wnt/β-catenin-hyperactive, 72 h; read-out: MTs IC50 ± SD HCT116
Method: as §1

In the case of `Cl.Cl.O=C(Nc1ccc(O[C@@H]2CCNC2)c(-c2cccc(-c3nn[nH]n3)c2)c1)c1ccc(O[C@H]2CCNC2)c(-c2ccc(F)c(F)c2)c1` [Compound 4, 3′,4′-difluoro-6-(((S)-pyrrolidin-3-yl)oxy)-N-(6-(((R)-pyrrolidin-3-yl)oxy)-3′-(2H-tetrazol-5-yl)-[1,1′-biphenyl]-3-yl)-[1,1′-biphenyl]-3-carboxamide dihydrochloride], the Ki (β-catenin/E-cadherin) is reported as > 915 µM, the IC50 (MDA-MB-231) is reported as 73 ± 8.9 µM and the IC50 (SW480) is reported as 41 ± 6.2 µM. For the same molecule, the IC50 (A549) was > 400 µM and the IC50 (HCT116) was 55 ± 7.4 µM.

— patent US20220411414A1, “INHIBITORS FOR THE B-CATENIN/B-CELL LYMPHOMA 9 (BCL9) PROTEIN-PROTEIN INTERACTION” (H. LEE MOFFITT CANCER CENTER AND RESEARCH INSTITUTE, INC., priority 2018, published 2022)
